The source of these data is patent US20140309210A1, “INDAZOLE COMPOUNDS, COMPOSITIONS AND METHODS OF USE THEREOF” (Genentech, Inc., priority 2011, published 2014).

The structures appear in SMILES notation. Some results are limits rather than exact numbers.

Broadly, the Ki is a measure of affinity in units of concentration, obtained from inhibition or displacement.

The first assay concerns the target T1, purified ITK (Invitrogen PV3875) (Homo sapiens, UniProt Q08881).
T1 construct: purchased Invitrogen PV3875
T1 sequence (Q08881 1-620): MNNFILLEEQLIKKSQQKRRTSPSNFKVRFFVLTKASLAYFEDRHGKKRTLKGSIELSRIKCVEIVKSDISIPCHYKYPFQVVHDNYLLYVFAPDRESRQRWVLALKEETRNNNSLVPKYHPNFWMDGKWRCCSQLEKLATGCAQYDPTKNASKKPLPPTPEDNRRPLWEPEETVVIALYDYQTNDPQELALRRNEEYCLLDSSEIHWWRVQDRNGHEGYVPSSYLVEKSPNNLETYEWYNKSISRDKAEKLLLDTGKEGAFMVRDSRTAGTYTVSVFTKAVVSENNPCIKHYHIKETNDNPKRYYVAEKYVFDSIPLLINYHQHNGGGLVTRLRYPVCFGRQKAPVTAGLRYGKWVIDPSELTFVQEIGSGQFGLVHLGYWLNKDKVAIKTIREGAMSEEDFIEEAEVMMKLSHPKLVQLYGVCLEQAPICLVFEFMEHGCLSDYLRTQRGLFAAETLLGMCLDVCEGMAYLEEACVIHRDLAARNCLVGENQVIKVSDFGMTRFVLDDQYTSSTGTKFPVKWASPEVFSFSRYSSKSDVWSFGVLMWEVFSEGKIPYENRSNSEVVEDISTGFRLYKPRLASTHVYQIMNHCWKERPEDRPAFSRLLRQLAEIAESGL
The assay is described as follows: ITK peptide phosphorylation assay (Caliper LabChip or LCMS). In kind it is biochemical. The conditions noted are these: Table 1, Examples 141-279. In a few lines:
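Ki values come from Morrison quadratic fits of activity versus inhibitor concentration, adjusted for ATP-competitive inhibition against ATP/Km,app. Substrate and phosphopeptide from purified ITK reactions were resolved either microfluidically (Caliper, EDTA stop) or by LC-MS MRM (TCA stop).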
Regarding `CN(CCC(c1ccccc1)n1cc(NC(=O)c2n[nH]c3ccccc23)cn1)S(C)(=O)=O` (centres unmarked) [Example 272, N-[1-[3-[methyl(methyl-sulfonyl)amino]-1-phenyl-propyl]pyrazol-4-yl]-1H-indazole-3-carboxamide], the affinity corresponds to a Ki of 41.6 nM.
On the same count and under the same terms, for `O=C(Nc1cnn(CC2CCCCC2)c1)c1n[nH]c2cc(-c3cn[nH]c3)ccc12` [Example 243, N-[1-(cyclohexylmeth-yl)pyrazol-4-yl]-6-(1H-pyrazol-4-yl)-1H-indazole-3-carboxamide] the value was 2.43 nM; for `CN(CCC(c1ccccc1)n1cc(NC(=O)c2n[nH]c3ccccc23)cn1)S(C)(=O)=O` (centres unmarked) [Example 271], 6.92 nM; for `CN1CCC(Nc2ccc3c(C(=O)Nc4cnn(Cc5cccc(C#N)c5)c4)n[nH]c3c2)C1` (centres unmarked) [Example 172, N-[1-[(3-cyanophenyl)meth-yl]pyrazol-4-yl]-6-[(1-methylpyrrolidin-3-yl)amino]-1H-indazole-3-carboxamide], 1400 nM.
The same measure, in the same setting: with `O=C(Nc1cnn(Cc2ccccc2)c1)c1n[nH]c2cc(-c3ccnnc3)ccc12` [Example 205, N-(1-benzylpyrazol-4-yl)-6-pyridazin-4 yl-1H-indazole-3 carboxamide] the figure was 131 nM; with `CC(C)n1cc(NC(=O)c2n[nH]c3cc(-c4cn[nH]c4)ccc23)cn1` [Example 192, N-(1-isopropylpyrazol-4-yl)-6-(1H-pyrazol-4-yl)-1H-indazole-3-carboxamide], 10.2 nM; with `Cn1nccc1-c1ccc2c(C(=O)Nc3cnn(Cc4cccc(C#N)c4)c3)n[nH]c2c1` [Example 196, N-[1-[(3-cyanophenyl)meth-yl]pyrazol-4-yl]-6-(2-methylpyrazol-3-yl)-1H-indazole-3-carboxamide], 354 nM.
Compound `COCCN(C)CC(c1cccnc1)n1cc(NC(=O)c2n[nH]c3cc(-c4cncc(OC)c4)ccc23)cn1` (centres unmarked) [Example 229, N-[1-[2-[2-methoxyethyl(meth-yl)amino]-1-(3-pyridyl)ethyl]py-razol-4-yl]-6-(5-methoxy-3-pyridyl)-1H-indazole-3-carboxamide] came in with a Ki of 32.4 nM.
With `O=C(Nc1cnn(Cc2ccccc2)c1)c1n[nH]c2cc(-c3cn[nH]c3)ccc12` [Example 181, N-(1-benzylpyrazol-4-yl)-6-(1H-pyrazol-4-yl)-1H-indazole-3-carboxamide], the Ki came to 1.07 nM.
The compound `O=C(Nc1cnn(Cc2cncs2)c1)c1n[nH]c2cc(-c3cn[nH]c3)ccc12` [Example 163, 6-(1H-pyrazol-4-yl)-N-[1-(thiazol-5-ylmethyl)pyrazol-4-yl]-1H-indazole-3-carboxamide] came in with a Ki of 1.16 nM.
On the same count and under the same terms, with `CNCCC(c1ccccc1)n1cc(NC(=O)c2n[nH]c3ccccc23)cn1` (centres unmarked) [Example 264, N-[1-[3-(methylamino)-1-phenyl-propyl]pyrazol-4-yl]-1H-indazole-3-carboxamide] the figure was 55.5 nM; with `N#CCn1cc(NC(=O)c2n[nH]c3cc(-c4cn[nH]c4)ccc23)cn1` [Example 260, N-[1-(cyanomethyl)py-razol-4-yl]-6-(1H-pyrazol-4-yl)-1H-indazole-3-carboxamide], 11.9 nM; with `CCC(c1ccccc1)n1cc(NC(=O)c2n[nH]c3cc(-c4cncc(OC)c4)ccc23)cn1` (centres unmarked) [Example 211, 6-(5-methoxy-3-pyridyl)-N-[1-(1-phenylpropyl)py-razol-4-yl]-1H-indazole-3-carboxamide], 53.8 nM.
As for `CN(C)CC(c1ccccc1)n1cc(NC(=O)c2n[nH]c3ccccc23)cn1` (centres unmarked) [Example 276, N-[1-[2-(dimethylamino)-1-phenyl-ethyl]pyrazol-4-yl]-1H-indazole-3-carboxamide], affinity was put at a Ki of 152 nM.
Compound `CNc1ncc(-c2ccc3c(C(=O)Nc4cnn(Cc5ccccc5)c4)n[nH]c3c2)s1` [Example 190, N-(1-benzylpyrazol-4-yl)-6-[2-(methylamino)thi-azol-5-yl]-1H-indazole-3-carboxamide] had a Ki of 18.5 nM.
Consider `O=C(Nc1cnn(Cc2ccccn2)c1)c1n[nH]c2cc(-c3cn[nH]c3)ccc12` [Example 220, 6-(1H-pyrazol-4-yl)-N-[1-(2-pyridylmethyl)py-razol-4-yl]-1H-indazole-3-carboxamide], for which the Ki worked out at 2.93 nM.
`O=C(Nc1cnn(Cc2ccccc2)c1)c1n[nH]c2cc(-c3cncc(Cl)c3)ccc12` [Example 207, N-(1-benzylpyrazol-4-yl)-6-(5-chloro-3-pyridyl)-1H-indazole-3-carboxamide] registered a Ki of 9.39 nM.
Regarding `O=C(Nc1cnn(CC2CC3CCC2C3)c1)c1n[nH]c2cc(-c3cn[nH]c3)ccc12` (centres unmarked) [Example 251, N-[1-(norbornan-2-ylmethyl)pyrazol-4-yl]-6-(1H-pyrazol-4-yl)-1H-indazole-3-carboxamide], affinity was put at a Ki of 5 nM.
On to `O=C(Nc1cn[nH]c1)c1n[nH]c2cc(-c3cn[nH]c3)ccc12` [Example 168, N,6-bis(1H-pyrazol-4-yl)-1H-indazole-3-carboxamide], for which the Ki was 21.6 nM.
For `Cc1cncc(-c2ccc3c(C(=O)Nc4cnn(Cc5cccc(C#N)c5)c4)n[nH]c3c2)c1` [Example 199, N-[1-[(3-cyanophenyl)meth-yl]pyrazol-4-yl]-6-(5-methyl-3-pyridyl)-1H-indazole-3-carboxamide], affinity was put at a Ki of 8.41 nM.

Staying with this assay, now noted: Table 2, Examples 1-140, class symbols.
Regarding `O=C(Nc1cnn(CCN2CCCC(O)C2)c1)c1n[nH]c2ccccc12` (centres unmarked) [Example 75, N-(1-(2-(3-Hydroxypiperidin-1-yl)ethyl)-1H-pyrazol-4-yl)-1H-indazole-3-carboxamide], the Ki is above 100 nM.
Same read-out and setting: with `N#Cc1cccc(Cn2cc(NC(=O)c3n[nH]c4ccc(CCO)cc34)cn2)c1` [Example 82] the figure was 1 to 100 nM.
On the same count and under the same terms, for `COC(=O)c1cccc(Cn2cc(NC(=O)c3n[nH]c4cc(-c5cn[nH]c5)ccc34)cn2)c1` [Example 10, 3-(4-{[6-(1H-Pyrazol-4-yl)-1H-indazole-3-carbonyl]-amino}-pyrazol-1-ylmethyl)-benzoic acid methyl ester] the value was 1 to 100 nM; for `O=C(Nc1cnn(Cc2ccc(OC(F)(F)F)cc2)c1)c1n[nH]c2ccccc12` [Example 72, N-(1-(4-(trifluoromethoxy)benzyl)-1H-pyrazol-4-yl)-1H-indazole-3-carboxamide], above 100 nM.
In turn, `CNCc1cccc(Cn2cc(NC(=O)c3n[nH]c4ccccc34)cn2)c1` [Example 101, N-(1-(3-((methylamino)methyl)benzyl)-1H-pyrazol-4-yl)-1H-indazole-3-carboxamide] returned a Ki of 1 to 100 nM.
`O=C(Nc1cnn(Cc2cc(F)ccc2F)c1)c1n[nH]c2ccccc12` [Example 69, N-(1-(2,5-difluorobenzyl)-1H-pyrazol-4-yl)-1H-indazole-3-carboxamide] gave a Ki of 1 to 100 nM.
As for `O=C(Nc1cnn(Cc2cccc(CNCC(F)F)c2)c1)c1n[nH]c2ccccc12` [Example 92, N-(1-(3-((2,2-difluoroethylamino)methyl)benzyl)-1H-pyrazol-4-yl)-1H-indazole-3-carboxamide], the Ki lay within 1 to 100 nM.
On the same count and under the same terms, with `O=C(Nc1cnn(Cc2cccc(CNC3CC3)c2)c1)c1n[nH]c2ccccc12` [Example 98, N-(1-(3-((cyclopropylamino)methyl)benzyl)-1H-pyrazol-4-yl)-1H-indazole-3-carboxamide] the figure was 1 to 100 nM; with `O=C(O)c1cccc(Cn2cc(NC(=O)c3n[nH]c4cc(-c5cn[nH]c5)ccc34)cn2)c1` [Example 46, 3-(4-{[6-(1H-Pyrazol-4-yl)-1H-indazole-3-carbonyl]-amino}-pyrazol-1-ylmethyl)-benzoic acid], 0.01 to 1 nM.
The compound `CC[C@@H](c1ccccc1)n1cc(NC(=O)c2n[nH]c3cc(-c4cncnc4)ccc23)cn1` [Example 138, (S)—N-(1-(1-phenylpropyl)-1H-pyrazol-4-yl)-6-(pyrimidin-5-yl)-1H-indazole-3-carboxamide] gave a Ki of 1 to 100 nM.
Compound `O=C(Nc1cnn(Cc2ccc(C(F)(F)F)cc2)c1)c1n[nH]c2ccccc12` [Example 62, N-(1-(4-(trifluoromethyl)benzyl)-1H-pyrazol-4-yl)-1H-indazole-3-carboxamide] displayed an inhibitory constant (Ki) of 1 to 100 nM.
The same measure, in the same setting: for `O=C(Nc1cnn(Cc2ccc(CNC3CCC3)cc2)c1)c1n[nH]c2ccccc12` [Example 107, N-(1-(4-((cyclobutylamino)methyl)benzyl)-1H-pyrazol-4-yl)-1H-indazole-3-carboxamide] the value was 1 to 100 nM; for `COc1ccc(Cn2cc(NC(=O)c3n[nH]c4ccccc34)cn2)cc1` [Example 66, N-(1-(4-methoxybenzyl)-1H-pyrazol-4-yl)-1H-indazole-3-carboxamide], 1 to 100 nM; for `O=C(Nc1cnn(Cc2c(Cl)cccc2Cl)c1)c1n[nH]c2ccccc12` [Example 61, N-(1-(2,6-dichlorobenzyl)-1H-pyrazol-4-yl)-1H-indazole-3-carboxamide], above 100 nM.
Same read-out and setting: for `N#Cc1cccc(Cn2cc(NC(=O)c3n[nH]c4cc(N5CCC(O)C5)ccc34)cn2)c1` (centres unmarked) [Example 88, N-(1-(3-cyanobenzyl)-1H-pyrazol-4-yl)-6-(3-hydroxypyrrolidin-1-yl)-1H-indazole-3-carboxamide] the value was 1 to 100 nM.

Staying with this assay, now noted: Table 3, specific values for certain examples.
In turn, `O=C(Nc1cnn(CCN2CCCC(O)C2)c1)c1n[nH]c2ccccc12` (centres unmarked) [Example 75, N-(1-(2-(3-Hydroxypiperidin-1-yl)ethyl)-1H-pyrazol-4-yl)-1H-indazole-3-carboxamide] gave a Ki of 428 nM.
For the compound `CC[C@@H](c1ccccc1)n1cc(NC(=O)c2n[nH]c3cc(-c4cncnc4)ccc23)cn1` [Example 138, (S)—N-(1-(1-phenylpropyl)-1H-pyrazol-4-yl)-6-(pyrimidin-5-yl)-1H-indazole-3-carboxamide], affinity was put at a Ki of 5.6 nM.
Compound `COc1ccc(Cn2cc(NC(=O)c3n[nH]c4ccccc34)cn2)cc1` [Example 66, N-(1-(4-methoxybenzyl)-1H-pyrazol-4-yl)-1H-indazole-3-carboxamide] registered a Ki of 37.7 nM.
